US20110002995A1, “PHARMACEUTICAL COMPOSITION FOR THE TREATMENT AND PREVENTION OF CARDIAC DISEASE” (MAZENCE INC., priority 2007, published 2011)

Columns and labels:
[1] = tested on: cardiomyocytic mitochondria, TAC-induced heart hypertrophy; test: Mitochondrial changes of cardiomyocytes in heart hypertrophy model (Experimental Example 5); type: in vivo, C57BL/6J mice; settings: orally for 4 weeks after induction of heart hypertrophy (2 weeks after TAC), transmission electron microscope, FIG. 16
Excerpt: (§1) Animals were orally given test samples for 4 weeks after induction of heart hypertrophy (2 weeks after TAC treatment) and heart failure (5 weeks after TAC treatment). The left ventricular myocardial tissues of animals were fixed in 2.5% glutaraldehyde to prepare tissue sections, and mitochondrial morphological changes were examined under a transmission electron microscope.
(§2) In C57BL/6J mice with TAC-induced heart hypertrophy and heart failure, alterations in cardiomyocytic mitochondria in response to the administration of MB660 were observed.

[2] = tested on: TAC-induced heart hypertrophy; test: Reversal of heart hypertrophy, TAC model (Experimental Example 2); type: in vivo, C57BL/6J male mice; settings: 150 mg/kg for 4 weeks, starting 2 weeks after TAC
Protocol: (§3) 8-week-old C57BL/6J male mice (n=40, 20-23 g, SLC, Japan) were purchased and subjected to transverse aortic constriction (TAC).
(§4) The thorax was incised and the thymus was removed.
(§5) 5 weeks after the operation of TAC for the heart failure model, a difference of a fractional shortening (F.S) value (%) with the control group was confirmed using echocardiogram, and the degree of heart failure induction and therapeutic effects were then determined.
(§6) Further, left ventricular end-diastolic and systolic diameters were measured according to the standard method of the American Society for Echocardiography. Fractional shortening (%) which is an indicator of the ventricular contractility is calculated according to the following equation.
(§7) F.S=(left ventricular end-diastolic diameter)−(left ventricular end-systolic diameter)/left ventricular end-diastolic diameter
(§8) In order to measure effects of MB660 on the reversal of heart hypertrophy and heart failure, the experiment was carried out as follows.
(§9) After induction of heart hypertrophy (2 weeks after TAC treatment) and heart failure (5 weeks after TAC treatment), animals were given test samples for 4 weeks.

[3] = tested on: TAC-induced heart hypertrophy; settings: FIG. 14
Excerpt: For the operation of TAC, C57BL/6 male mice were anesthetized with an intraperitoneal injection of a liquid anesthetic (ketamine:xylazine=20:1, kg/ml), and a 22-gauge IV catheter needle was placed into the trachea, followed by connection with a ventilator (Harvard Apparatus) for artificial forcible respiration. The thorax was incised and the thymus was removed. Following the removal of the thymus, the transverse aorta between the right subclavian artery and the left subclavian artery was banded (7-0, silk) with an overlaying blunted 27-gauge needle, and then the needle was quickly removed to create a defined constriction. The thorax was sutured with (5-0) silk to complete the surgery, and respiration of animals was then confirmed.
A ratio of heart weight (HW) to body weight (BW) (HW/BW ratio) and a ratio of heart weight (HW) to tibia length (HW/TL ratio) were respectively estimated using echocardiogram.
2 days after the operation of TAC, animals were orally given test samples for 2 weeks.

[4] = tested on: TAC-induced heart hypertrophy; test: Changes of heart size in heart hypertrophy model (Experimental Example 4); type: in vivo, C57BL/6J male mice; settings: 150 mg/kg orally for two weeks from one week after TAC, heart excised three weeks after TAC, FIG. 15
Excerpt: as §4
In order to examine changes of heart size in response to the administration of MB660, experimental animals were divided into four groups as given in Table 4 below:
One week after TAC treatment, animals were orally given MB660 for two weeks. Three weeks after TAC treatment, animals were sacrificed and the heart was excised, followed by size examination.

[5] = tested on: TAC-induced heart failure; test: Inhibitory effect on heart failure, TAC model (Experimental Example 1); type: in vivo, C57BL/6J male mice
Protocol: as §3, §4, §5, §6, §7
(§10) Among compounds of Formula 1, inhibitory effects of 7,8-dihydro-2,2-dimethyl-2H-naphtho(2,3-b)dihydropyran-7,8-dione (hereinafter, referred to as “MB660”) on heart hypertrophy and heart failure were examined.
(§11) 2 days after TAC treatment, animals were given test samples. Induction of heart hypertrophy was carried out over 2 weeks after TAC treatment. Induction of heart failure was carried out over 5 weeks after TAC treatment.

[6] = tested on: TAC-induced heart hypertrophy; test: Inhibitory effect on heart hypertrophy, TAC model (Experimental Example 1); type: in vivo, C57BL/6J male mice
Protocol: as §3, §4, §5, §6, §7, §10, §11

[7] = tested on: cardiomyocytic mitochondria, TAC-induced heart failure; test: Mitochondrial changes of cardiomyocytes in heart failure model (Experimental Example 5); type: in vivo, C57BL/6J mice; settings: orally for 4 weeks after induction of heart failure (5 weeks after TAC), transmission electron microscope, FIG. 17
Excerpt: as §1, §2

[8] = tested on: TAC-induced heart failure; test: Reversal of heart failure, TAC model (Experimental Example 2); type: in vivo, C57BL/6J male mice; settings: 150 mg/kg for 4 weeks, starting 5 weeks after TAC
Protocol: as §3, §4, §5, §6, §7, §8, §9

Structure (SMILES): CC1(C)CCc2cc3c(cc2O1)=CC(=O)C(=O)C=3 [MB660, 7,8-dihydro-2,2-dimethyl-2H-naphtho(2,3-b)dihydropyran-7,8-dione]
- mitochondrial function/morphology of cardiomyocytes [1]: returned to the original condition
- HW/BW lower than the non-MB660 treated group ([2]; FIG. 7): ≥ 30%
- HW/BW value ([2]; FIG. 7): 6.23
- HW/TL lower than the non-MB660 treated group ([2]; FIG. 8): about 25%
- HW/TL value ([2]; FIG. 8): 7.68
- fractional shortening vs non-MB660 treated group ([2]; FIG. 9): significant increase
- HW/BW ratio vs control group (TAC) ([3]; 30, 60, 100, 150 mg/kg orally for 2 weeks from 2 days after TAC): significant decrease
- HW/BW ratio, dependence on dose ([3]; 30 to 150 mg/kg orally for 2 weeks): generally decreased with an increasing dose
- HW/BW ratio at 60 mg compared to the group with 30 mg ([3]; orally for 2 weeks): increased
- heart size, TAC group vs non-administered TAC control [4]: significant decrease of the heart size
- HW/BW ratio vs non-MB660 treated group ([5]; TAC MB(+), 150 mg/kg, given from 2 days after TAC, heart failure induced over 5 weeks, FIG. 4): significantly low values
- HW/TL ratio vs non-MB660 treated group ([5]; TAC MB(+), 150 mg/kg, given from 2 days after TAC, heart failure induced over 5 weeks, FIG. 5): significantly low values
- fractional shortening vs non-MB660 treated group ([5]; echocardiogram, heart failure-induced model): significantly increased
- HW/BW ratio vs non-MB660 treated TAC group ([6]; TAC MB(+), 150 mg/kg, given from 2 days after TAC, hypertrophy induced over 2 weeks, FIG. 1): significantly low value of heart hypertrophy
- HW/TL ratio vs non-MB660 treated TAC group ([6]; TAC MB(+), 150 mg/kg, given from 2 days after TAC, hypertrophy induced over 2 weeks, FIG. 2): significantly low value of heart hypertrophy
- fractional shortening vs non-MB660 treated group ([6]; echocardiogram, heart hypertrophy-induced model, FIG. 3): significant increase
- mitochondrial function/morphology of cardiomyocytes [7]: returned to the original condition
- HW/BW ratio vs control group ([8]; FIG. 10): low values
- HW/TL ratio vs control group ([8]; FIG. 11): low values
- fractional shortening vs control group ([8]; FIG. 12): significant increase
